According to patent US5464821A, “Small peptidic compounds useful for the treatment of glaucoma” (Carlbiotech, Ltd., priority 1991, dated 1995):
Residues, ends and D or L forms follow the SMILES beside them. *: point of attachment. OBn = c1ccc(CO*)cc1; Acm = CC(=O)NC*

Assays:
[1] = from PCT/DK90/00322; cited from earlier work
[2] = test system: stress induced intraocular pressure in the rabbit's eye; test: stress induced antagonizing model, intraocular pressure in the rabbit's eye; assay type: in vivo; parameters: key to Antagonizing Effect: Active: the pressure increase following 10 stress units for the treated group on average was found to be smaller than 2 mm Hg and to be significantly less compared to untreated controls; details: for Antagonizing Effect: 1% solution in 0.9% aqueous NaCl, 60 μl topically 3 times daily over 5 days, following 10 stress units
Experimental: The main feature of this clinical model is a stress induced elevation of the IOP in the rabbit eye above the initial and normal value. The stress is exerted, i.e. applied, in the form of measuring the pressure (at 12 hour intervals) with the help of a SHIOTZ-Tonometer, which is loaded with 7.5 grams. The pressure first begins to rise after 5 measurements, i.e. after 21/2 days, and reaches a maximum after 10 measurements, i.e. after 5 days.
Known antiglaucoma drugs lower the intraocular pressure when they are applied after the intraocular pressure (IOP) has clearly been established,in spite of the fact that the trauma, i.e. the measuring of the pressure, continued during the treatment.
Antagonizing of the Intraocular Pressure in the stressed Rabbit's Eyes Model
The compound was a freeze-dried powder, and was applied to the rabbit eye as a powder, or as drops, dissolved in 0.9% NaCl aqueous solution. Negative control was 0.9% NaCl solution in water.
(§1) Peptides were tested for the intraocular pressure lowering or antagonizing effects in the water load model described above or the stress induced antagonizing model respectively, in groups of four to ten rabbits, as described below. The tests were performed on homogeneous groups of randomly sexed rabbits, weight 2.5-3.0 kg, but of different breeds in various laboratories several places in the world. Thus, in some cases intergroup variations were found in the absolute starting pressure of the rabbit's eyes.
(§2) In the case of the water load model structure, each rabbit served as its own reference control for the duration of the experiment, and in the case of the stress induced antagonistic model, each group of rabbits served as reference control, at the beginning and end of 10 stress units. Usually, the peptides were dissolved in plain isotonic saline, but in one case in the waterload model, a TRIS-buffer at physiological pH was included.
The peptides were applied topically as a 1% solution in 0.9% aqueous NaCl in aliquots of 60 μl 3 times daily over a period of 5 days.

[3] = test system: water load induced hypertension in the rabbit's eye; test: water load model, intraocular pressure in the rabbit's eye; assay type: in vivo
Experimental: The findings of IOP lowering effects in the stress induced rabbit model have been confirmed and further studied by using another elevated eye pressure rabbit model. In this model, the widely applied water load model, elevation of the intraocular pressure is achieved by injecting a large volume of sterile water intraperitoneally into the rabbits. Following onset of eye drop treatment in one eye while the other eye is treated with saline placebo, the intraocular pressure of both eyes is then measured at various intervals and the .pressure difference between the eyes is taken as an expresion of the pharmaceutical effect.
The studies utilized a "water load" animal model.
Thirty minutes before drug solution instillation, rabbits were injected intraperitonally with 60 ml/kg of sterile distilled water for injection (30° C.) spiked with an antibiotic mixture (Sigma P9032).
At time zero, 50 μl of a drug solution was instilled to one eye and an equal volume of a saline solution was instilled to the other eye. The IOP in each eye was monitored at the time points indicated. The change in IOP at each time point is computed by subtracting the IOP in the dosed eye from that in the undosed-eye.
From these plots were assessed the maximal IOP effect, the time to reach this and the time for returning to a zero or insignificant level of IOP lowering effect. These figures were taken as a measure of potency and duration of effect.
as §1, §2
50 μl of a 1% solution of the peptides in 0.9% aqueous saline were applied in one eye and 50 μl of 0.9% aqueous saline in the other eye 30 minutes after the intraperitonal water loading and IOP were measured in both eyes for 2 hours and the difference calculated.
50 μl of 1% solution of the peptides in 0.9% isotonic saline containing TRIS-buffer pH 7.4 was applied in one eye and 50 μl of 0.9% isotonic saline containing TRIS-buffer. pH 7.4 in the other eye 30 minutes after the interperitonal water loading and intraocular pressure was measured in both eyes for 2 hours and the difference calculated.

[4] = test system: stress induced intraocular pressure in the rabbit's eye; details: earlier work in the laboratory of one of the inventors; cited from earlier work
[5] = single dose 50 μl of 1% solution in 0.9% aqueous saline in one eye, saline in the other, IOP measured for 2 hours

CC(=O)NCSC[C@H](NC(=O)[C@@H](NC(=O)CNC(=O)[C@H](CC(C)C)NC(=O)[C@@H](N)CC(N)=O)C(C)C)C(N)=O [HAsnLeuGlyValCys(Acm)NH2, H-Asn-Leu-Gly-Val-Cys(Acm)-NH2] (H-NLGVC(Acm)-NH2)
penetration of the sclera of the eye [1]: penetrate the sclera of the eye

CC(C)C[C@H](NC(=O)[C@@H](N)CC(N)=O)C(=O)NCC(=O)N[C@@H](Cc1ccc(O)cc1)C(N)=O [H-Asn-Leu-Gly-Tyr-NH2] (H-NLGY-NH2)
Antagonizing Effect [2]: Active

CC(C)[C@H](NC(=O)CCN)C(=O)OCc1ccccc1 [H-β-Ala-Val-OBzl, β-alanyl L-valine Benzylester]
Pressure Lowering Effect ([3]; single dose 50 μl of 1% solution in 0.9% isotonic saline containing TRIS-buffer pH 7.4, IOP measured for 2 hours): Active

CC(C)[C@H](NC(=O)CNC(=O)CNC(=O)[C@@H](N)CC(N)=O)C(N)=O [H-Asn-Gly-Gly-Val-NH2] (H-NGGV-NH2)
Antagonizing Effect [2]: Active

CC(C)C[C@H](NC(=O)[C@@H](N)CC(N)=O)C(=O)NCC(=O)N[C@H](C(N)=O)C(C)C [H-Asn-Leu-Gly-Val-NH2] (H-NLGV-NH2)
Antagonizing Effect [2]: Active

CC[C@@H]1C(=O)OC[C@@H]1Cc1cncn1C [pilocarpine, reference compound]
pressure lowering effect in the water load model (in words) ([3]; 2.6% solution, positive reference control): gave a similar response to some of the preferred compounds

CC(C)[C@H](NC(=O)CN)C(=O)OCc1ccccc1 [H-Gly-Val-OBzl, Glycyl-L-Valine-Benzylester] (H-Gly-Val-OBn)
Pressure Lowering Effect [3, 5]: Active | Antagonizing Effect [2]: Active | antagonizing effect / efficacy in the stress induced rabbit model (in words) ([2]; stress induced model): good efficacy

CC(C)[C@H](NC(=O)CN)C(=O)N[C@@H](Cc1ccc(O)cc1)C(N)=O [H-Gly-Val-Tyr-NH2] (H-Gly-Val-Tyr-NH2)
Pressure Lowering Effect [3, 5]: Active | Antagonizing Effect [2]: Active

CC(C)(C)NC[C@H](O)COc1nsnc1N1CCOCC1 [timolol]
pressure lowering effect of known drugs in the stress model [4]: pressure lowering effect

CC(=O)NCC(=O)NCC(=O)N[C@H](C(N)=O)C(C)C [Ac-Gly-Gly-Val-NH2] (Ac-Gly-Gly-Val-NH2)
Pressure Lowering Effect [3, 5]: Active | Antagonizing Effect [2]: Active

CCOC(=O)[C@@H](NC(=O)CNC(=O)CN)C(C)C [H-Gly-Gly-Val-OEt] (H-Gly-Gly-Val-OEt)
Antagonizing Effect [2]: Active
